In series [1] the target is Cytochrome P450 2C9 (Homo sapiens, UniProt P11712). The series is described as follows: Inhibition of CYP2C9 in human liver microsomes using diclofenac as substrate pretreated for 10 mins followed by substrate addition measured after 10 mins in presence of NADPH by LC-MS/MS method. Format: ADME.
Series [2] deals with T1, Tyrosine-protein kinase JAK3 (Homo sapiens) (UniProt P52333).
T1 sequence (whole entry): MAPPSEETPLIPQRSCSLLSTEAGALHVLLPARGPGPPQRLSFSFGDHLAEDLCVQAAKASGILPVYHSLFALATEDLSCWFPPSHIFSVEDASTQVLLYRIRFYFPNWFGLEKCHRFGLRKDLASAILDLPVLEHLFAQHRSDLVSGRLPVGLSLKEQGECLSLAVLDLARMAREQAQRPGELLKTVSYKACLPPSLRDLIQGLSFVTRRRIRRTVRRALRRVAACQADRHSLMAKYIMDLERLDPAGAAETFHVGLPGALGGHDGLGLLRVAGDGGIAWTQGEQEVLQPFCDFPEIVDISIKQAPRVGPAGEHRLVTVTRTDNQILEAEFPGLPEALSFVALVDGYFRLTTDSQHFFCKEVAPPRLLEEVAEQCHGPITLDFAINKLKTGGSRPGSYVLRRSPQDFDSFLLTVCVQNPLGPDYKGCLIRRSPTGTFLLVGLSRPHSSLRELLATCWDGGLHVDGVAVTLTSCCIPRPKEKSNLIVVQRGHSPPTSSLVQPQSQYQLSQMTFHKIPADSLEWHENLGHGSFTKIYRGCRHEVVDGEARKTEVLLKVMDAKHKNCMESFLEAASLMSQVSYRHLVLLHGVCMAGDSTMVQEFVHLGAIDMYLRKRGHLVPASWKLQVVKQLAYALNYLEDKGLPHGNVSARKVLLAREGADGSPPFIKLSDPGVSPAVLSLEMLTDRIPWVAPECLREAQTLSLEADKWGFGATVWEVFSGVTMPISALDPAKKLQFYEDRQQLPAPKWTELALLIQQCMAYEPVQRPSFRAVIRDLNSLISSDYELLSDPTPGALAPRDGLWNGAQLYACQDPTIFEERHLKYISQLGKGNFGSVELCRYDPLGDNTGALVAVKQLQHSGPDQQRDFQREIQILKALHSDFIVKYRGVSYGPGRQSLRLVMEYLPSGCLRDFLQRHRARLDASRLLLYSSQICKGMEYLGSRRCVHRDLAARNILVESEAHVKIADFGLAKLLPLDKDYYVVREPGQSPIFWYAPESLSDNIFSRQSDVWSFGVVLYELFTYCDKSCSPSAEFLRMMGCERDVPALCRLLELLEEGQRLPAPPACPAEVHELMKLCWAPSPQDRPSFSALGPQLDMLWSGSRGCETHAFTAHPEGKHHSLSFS
The series is described as follows: Inhibition of human JAK3 at 10 uM using GEEEEYFELVKKKK as substrate measured after 120 mins in presence of [gamma33P]ATP by P81 ion exchange chromatographic method relative to control.

In series [3] the target is T2, Cytochrome P450 1A2 (Homo sapiens, UniProt P05177).
T2 sequence (P05177 whole entry): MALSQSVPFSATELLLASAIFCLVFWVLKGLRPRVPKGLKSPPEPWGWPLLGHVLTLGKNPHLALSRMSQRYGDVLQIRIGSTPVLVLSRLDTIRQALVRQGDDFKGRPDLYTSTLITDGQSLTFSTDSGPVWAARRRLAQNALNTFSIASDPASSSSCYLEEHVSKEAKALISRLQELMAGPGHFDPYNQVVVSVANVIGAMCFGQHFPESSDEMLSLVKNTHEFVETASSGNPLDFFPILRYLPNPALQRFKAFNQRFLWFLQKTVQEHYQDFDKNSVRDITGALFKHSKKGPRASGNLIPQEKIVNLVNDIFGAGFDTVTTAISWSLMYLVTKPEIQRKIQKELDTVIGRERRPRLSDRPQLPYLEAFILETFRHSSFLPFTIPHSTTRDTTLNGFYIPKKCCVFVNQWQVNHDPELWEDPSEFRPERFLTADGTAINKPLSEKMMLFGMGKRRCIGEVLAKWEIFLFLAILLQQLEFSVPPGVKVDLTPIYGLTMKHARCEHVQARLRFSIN
The series is described as follows: Inhibition of CYP1A2 in human liver microsomes using phenacetin as substrate pretreated for 10 mins followed by substrate addition measured after 10 mins in presence of NADPH by LC-MS/MS method. Format: ADME. A general note: Liver microsomes are a subcellular fraction often used to study metabolism.

Series [4] is described as follows: Octanol-buffer distribution co-efficient, log D of the compound at pH 7.4. In kind it is physicochemical.
Series [5] concerns the target Tyrosine-protein kinase BTK (Homo sapiens, UniProt Q06187). The series is described as follows: Inhibition of human BTK using KVEKIGEGTYGVVYK as substrate measured after 120 mins in presence of [gamma33P]ATP by P81 ion exchange chromatographic method.
Series [6] deals with Vascular endothelial growth factor receptor 2 (Homo sapiens, UniProt P35968). The series is described as follows: Inhibition of human VEGFR2 using poly[Glu:Tyr] (4:1) as substrate measured after 120 mins in presence of [gamma33P]ATP by P81 ion exchange chromatographic method.
Chain of Vascular endothelial growth factor receptor 2 (P35968 whole entry): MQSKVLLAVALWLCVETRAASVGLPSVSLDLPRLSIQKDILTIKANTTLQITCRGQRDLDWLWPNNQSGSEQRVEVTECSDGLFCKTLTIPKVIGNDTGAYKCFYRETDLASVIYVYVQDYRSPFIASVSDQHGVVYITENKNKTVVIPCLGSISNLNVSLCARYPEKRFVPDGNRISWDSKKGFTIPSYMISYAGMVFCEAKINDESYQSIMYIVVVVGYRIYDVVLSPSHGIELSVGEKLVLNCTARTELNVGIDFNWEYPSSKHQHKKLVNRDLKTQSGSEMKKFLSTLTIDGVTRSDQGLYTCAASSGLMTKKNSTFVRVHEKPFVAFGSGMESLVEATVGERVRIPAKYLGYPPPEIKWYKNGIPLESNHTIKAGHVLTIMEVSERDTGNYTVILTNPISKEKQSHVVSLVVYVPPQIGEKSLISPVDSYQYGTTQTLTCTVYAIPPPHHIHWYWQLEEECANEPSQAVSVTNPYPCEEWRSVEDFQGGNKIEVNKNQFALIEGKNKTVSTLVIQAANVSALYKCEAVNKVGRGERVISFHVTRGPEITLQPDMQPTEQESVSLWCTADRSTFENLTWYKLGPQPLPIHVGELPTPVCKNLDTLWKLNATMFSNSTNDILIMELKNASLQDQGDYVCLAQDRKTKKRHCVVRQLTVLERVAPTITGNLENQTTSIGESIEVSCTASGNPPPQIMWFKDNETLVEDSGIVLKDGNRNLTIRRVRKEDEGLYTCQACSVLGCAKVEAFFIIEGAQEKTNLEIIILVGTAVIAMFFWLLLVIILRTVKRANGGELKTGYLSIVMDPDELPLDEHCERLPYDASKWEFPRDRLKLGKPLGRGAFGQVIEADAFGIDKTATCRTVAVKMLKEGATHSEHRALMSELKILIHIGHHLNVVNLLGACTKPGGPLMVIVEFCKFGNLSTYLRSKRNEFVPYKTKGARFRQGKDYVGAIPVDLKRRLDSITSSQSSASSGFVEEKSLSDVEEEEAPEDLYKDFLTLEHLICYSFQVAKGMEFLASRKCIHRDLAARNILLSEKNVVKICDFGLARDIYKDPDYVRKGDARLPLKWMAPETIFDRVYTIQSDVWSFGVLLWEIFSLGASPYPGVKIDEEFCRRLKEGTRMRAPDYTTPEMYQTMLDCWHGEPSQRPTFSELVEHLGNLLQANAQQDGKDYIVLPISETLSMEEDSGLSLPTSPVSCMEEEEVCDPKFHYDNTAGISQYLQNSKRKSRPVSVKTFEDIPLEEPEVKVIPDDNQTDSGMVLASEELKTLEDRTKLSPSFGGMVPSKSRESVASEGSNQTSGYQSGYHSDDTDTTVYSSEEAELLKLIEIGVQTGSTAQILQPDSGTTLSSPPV
The target in series [7] is Epidermal growth factor receptor (Homo sapiens, UniProt P00533). The series is described as follows: Inhibition of human EGFR at 10 uM using poly[Glu:Tyr] (4:1) as substrate measured after 120 mins in presence of [gamma33P]ATP by P81 ion exchange chromatographic method relative to control.
Chain of Epidermal growth factor receptor (P00533 whole entry): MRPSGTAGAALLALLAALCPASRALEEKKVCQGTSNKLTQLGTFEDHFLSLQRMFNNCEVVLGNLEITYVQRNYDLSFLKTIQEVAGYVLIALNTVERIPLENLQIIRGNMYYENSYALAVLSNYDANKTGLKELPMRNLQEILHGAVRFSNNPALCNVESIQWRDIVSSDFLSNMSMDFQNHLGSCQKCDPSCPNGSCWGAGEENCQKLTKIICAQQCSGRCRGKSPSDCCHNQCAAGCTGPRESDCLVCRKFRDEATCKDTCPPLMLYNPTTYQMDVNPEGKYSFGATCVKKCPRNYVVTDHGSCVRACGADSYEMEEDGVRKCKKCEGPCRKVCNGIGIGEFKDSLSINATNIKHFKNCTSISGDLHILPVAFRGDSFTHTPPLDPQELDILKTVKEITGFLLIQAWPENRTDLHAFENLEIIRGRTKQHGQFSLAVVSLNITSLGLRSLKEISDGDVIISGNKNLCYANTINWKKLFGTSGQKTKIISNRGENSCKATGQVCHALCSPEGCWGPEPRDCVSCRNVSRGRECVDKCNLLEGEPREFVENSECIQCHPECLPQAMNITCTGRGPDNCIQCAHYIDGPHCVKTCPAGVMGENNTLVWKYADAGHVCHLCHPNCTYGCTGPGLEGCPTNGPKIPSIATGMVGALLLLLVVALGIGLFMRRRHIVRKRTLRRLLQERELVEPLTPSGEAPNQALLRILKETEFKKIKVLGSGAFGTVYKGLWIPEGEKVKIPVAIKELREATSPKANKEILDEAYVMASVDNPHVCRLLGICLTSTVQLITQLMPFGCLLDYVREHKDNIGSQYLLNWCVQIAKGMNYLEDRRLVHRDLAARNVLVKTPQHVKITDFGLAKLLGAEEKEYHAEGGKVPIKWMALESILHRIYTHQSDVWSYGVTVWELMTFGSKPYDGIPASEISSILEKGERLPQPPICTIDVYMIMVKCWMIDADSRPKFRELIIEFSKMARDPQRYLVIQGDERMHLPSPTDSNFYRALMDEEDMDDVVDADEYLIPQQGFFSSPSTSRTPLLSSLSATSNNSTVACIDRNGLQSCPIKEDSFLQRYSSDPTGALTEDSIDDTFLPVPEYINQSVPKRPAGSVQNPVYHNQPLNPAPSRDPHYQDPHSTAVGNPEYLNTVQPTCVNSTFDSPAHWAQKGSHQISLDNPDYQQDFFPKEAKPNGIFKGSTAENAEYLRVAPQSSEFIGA
Series [8] concerns the target T3, Tyrosine-protein kinase Tec (Homo sapiens, UniProt P42680).
T3 sequence (P42680 whole entry): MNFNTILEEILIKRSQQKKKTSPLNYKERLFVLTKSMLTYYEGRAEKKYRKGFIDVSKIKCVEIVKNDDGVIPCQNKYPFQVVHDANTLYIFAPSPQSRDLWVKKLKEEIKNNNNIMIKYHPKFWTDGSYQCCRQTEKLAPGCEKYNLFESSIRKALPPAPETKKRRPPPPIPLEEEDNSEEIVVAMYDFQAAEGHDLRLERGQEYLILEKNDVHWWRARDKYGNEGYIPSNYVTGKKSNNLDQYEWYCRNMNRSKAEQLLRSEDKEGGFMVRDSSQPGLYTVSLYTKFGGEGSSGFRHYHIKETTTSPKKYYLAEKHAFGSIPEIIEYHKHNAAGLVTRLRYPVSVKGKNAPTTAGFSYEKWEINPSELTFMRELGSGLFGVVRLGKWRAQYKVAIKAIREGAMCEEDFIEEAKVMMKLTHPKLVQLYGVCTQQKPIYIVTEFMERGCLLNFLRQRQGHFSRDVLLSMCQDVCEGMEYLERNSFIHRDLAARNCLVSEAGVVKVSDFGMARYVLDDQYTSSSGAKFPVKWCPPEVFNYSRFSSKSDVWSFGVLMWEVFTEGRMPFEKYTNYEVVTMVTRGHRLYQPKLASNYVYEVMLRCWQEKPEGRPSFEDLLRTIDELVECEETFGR
The series is described as follows: Inhibition of human TEC using poly[Glu:Tyr] (4:1) as substrate measured after 120 mins in presence of [gamma33P]ATP by P81 ion exchange chromatographic method.

In series [9] the target is Macrophage colony-stimulating factor 1 receptor (Homo sapiens, UniProt P07333). The series is described as follows: Inhibition of human FMS using poly[Glu:Tyr] (4:1) as substrate measured after 120 mins in presence of [gamma33P]ATP by P81 ion exchange chromatographic method.
Chain of Macrophage colony-stimulating factor 1 receptor (P07333 whole entry): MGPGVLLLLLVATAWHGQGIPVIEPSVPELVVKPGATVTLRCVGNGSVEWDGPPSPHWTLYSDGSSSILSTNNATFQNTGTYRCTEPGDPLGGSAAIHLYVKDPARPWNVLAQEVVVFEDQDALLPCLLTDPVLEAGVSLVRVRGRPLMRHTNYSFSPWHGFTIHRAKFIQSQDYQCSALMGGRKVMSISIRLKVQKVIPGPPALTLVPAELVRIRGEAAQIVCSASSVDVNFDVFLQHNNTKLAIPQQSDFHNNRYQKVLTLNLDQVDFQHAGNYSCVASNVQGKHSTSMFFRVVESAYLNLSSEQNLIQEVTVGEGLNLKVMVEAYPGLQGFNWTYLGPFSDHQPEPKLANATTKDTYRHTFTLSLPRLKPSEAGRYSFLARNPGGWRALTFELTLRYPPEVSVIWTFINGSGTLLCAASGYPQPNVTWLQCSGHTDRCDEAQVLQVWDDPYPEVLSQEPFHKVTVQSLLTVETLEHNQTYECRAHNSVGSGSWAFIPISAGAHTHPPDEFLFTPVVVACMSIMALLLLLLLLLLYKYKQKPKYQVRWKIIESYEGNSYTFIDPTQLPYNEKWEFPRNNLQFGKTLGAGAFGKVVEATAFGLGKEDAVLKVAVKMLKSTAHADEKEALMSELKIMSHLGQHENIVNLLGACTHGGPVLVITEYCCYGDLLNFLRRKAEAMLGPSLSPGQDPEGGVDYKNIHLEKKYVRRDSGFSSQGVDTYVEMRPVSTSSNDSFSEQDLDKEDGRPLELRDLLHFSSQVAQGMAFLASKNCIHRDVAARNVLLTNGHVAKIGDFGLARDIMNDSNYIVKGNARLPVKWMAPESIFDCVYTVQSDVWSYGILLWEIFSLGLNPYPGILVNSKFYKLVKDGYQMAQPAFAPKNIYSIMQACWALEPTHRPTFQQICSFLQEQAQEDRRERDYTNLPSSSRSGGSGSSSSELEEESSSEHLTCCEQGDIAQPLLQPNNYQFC

pIC50: −log10 of the molar value.

Chain of Cytochrome P450 2C9 (P11712 whole entry): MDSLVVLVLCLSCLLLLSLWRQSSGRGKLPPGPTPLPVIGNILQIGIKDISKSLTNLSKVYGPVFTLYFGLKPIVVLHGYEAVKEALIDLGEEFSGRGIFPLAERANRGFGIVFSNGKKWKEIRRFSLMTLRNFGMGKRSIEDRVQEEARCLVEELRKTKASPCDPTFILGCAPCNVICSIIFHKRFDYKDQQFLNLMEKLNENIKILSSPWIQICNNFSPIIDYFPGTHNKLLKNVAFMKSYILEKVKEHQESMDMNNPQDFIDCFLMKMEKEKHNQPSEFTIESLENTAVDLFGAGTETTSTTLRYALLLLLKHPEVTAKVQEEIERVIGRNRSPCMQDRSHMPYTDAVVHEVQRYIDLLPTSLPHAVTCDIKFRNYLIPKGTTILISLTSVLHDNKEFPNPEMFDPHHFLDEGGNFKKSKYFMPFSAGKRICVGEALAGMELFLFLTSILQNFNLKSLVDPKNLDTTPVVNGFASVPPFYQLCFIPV
Chain of Tyrosine-protein kinase BTK (Q06187 whole entry): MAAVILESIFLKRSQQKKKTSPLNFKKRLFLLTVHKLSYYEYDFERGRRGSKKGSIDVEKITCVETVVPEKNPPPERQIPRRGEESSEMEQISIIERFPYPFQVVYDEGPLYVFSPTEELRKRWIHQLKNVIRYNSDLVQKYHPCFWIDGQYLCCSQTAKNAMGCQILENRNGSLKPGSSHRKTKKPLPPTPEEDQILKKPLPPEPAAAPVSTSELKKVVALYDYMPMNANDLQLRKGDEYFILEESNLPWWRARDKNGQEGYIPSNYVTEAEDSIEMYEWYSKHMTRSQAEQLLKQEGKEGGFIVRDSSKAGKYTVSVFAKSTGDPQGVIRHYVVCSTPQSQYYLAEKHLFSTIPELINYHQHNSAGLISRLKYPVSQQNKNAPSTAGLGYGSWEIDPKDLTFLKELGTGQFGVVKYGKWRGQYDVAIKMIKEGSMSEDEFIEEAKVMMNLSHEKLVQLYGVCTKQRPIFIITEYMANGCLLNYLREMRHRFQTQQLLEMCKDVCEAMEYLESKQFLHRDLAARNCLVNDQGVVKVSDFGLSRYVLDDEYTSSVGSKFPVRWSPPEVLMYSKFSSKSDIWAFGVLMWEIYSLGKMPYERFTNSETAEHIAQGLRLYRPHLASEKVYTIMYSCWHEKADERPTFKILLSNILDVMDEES

A word on the pIC50: it is the negative decadic logarithm of the IC50, by convention in mol/L. By inhibition is commonly meant how much of the control response was suppressed. For orientation: logD means lipophilicity at a set pH, counting ionised and neutral species. Read a high logD as a more lipophilic compound. Consider `C=CC(=O)Nc1cccc(C)c1Nc1ncc(OCc2c(F)c(OC)cc(OC)c2F)cn1`, for which the pIC50 in [1] is 5.43; in series [3], less than 4.30; in series [5] it was less than 5.00; in [6] it was less than 5.00; in [8] it was less than 5.00; in series [9] it was less than 5.00. In addition, the values for the inhibition in [2] and in series [7] were 7% and 6%, respectively. The logD in [4] stood at 3.

Regarding `C=CC(=O)N[C@H]1COC[C@H]1Nc1ncc(OCc2c(F)c(OC)cc(OC)c2F)cn1`, the pIC50 in series [1] was 4.54; in [3], less than 4.30; in series [5], less than 5.00; in [6], less than 5.00; in series [8], less than 5.00; in [9] it was less than 5.00. The inhibition in series [2] is 9%; in series [7], 1%. Moreover, the logD in [4] came to 1.8.

For the compound `C=CC(=O)Nc1cccc(C)c1Nc1ncc2cc(-c3c(Cl)c(OC)cc(OC)c3Cl)ccc2n1`, the pIC50 in [1] was 6.05; in [3] it was 4.80; in series [5], less than 5.00; in series [6] it was less than 5.00; in series [8], less than 5.00; in series [9] it was 5.96. Further, the figures for the inhibition in series [2] and in series [7] were 12% and 1%, respectively. This compound also yielded a logD in series [4] of more than 4.5.

These data come from ChEMBL document CHEMBL4017480, “Discovery and optimization of selective FGFR4 inhibitors via scaffold hopping” (Bioorg Med Chem Lett, 2017).
